Counter-ions that a name gives are not always drawn.
Molecular target: recombinant human cathepsin C (Homo sapiens, UniProt P53634)
Assay: Recombinant Cathepsin C In Vitro Assay (cleavage of fluorogenic substrate H-Ser-Tyr-AMC)
Assay type: biochemical
Settings: 24 pM enzyme, pH 5.5, one hour preincubation with compound at room temperature, read-out: concentration at which 50% cathepsin C inhibition is exhibited
Method: C. Recombinant Cathepsin C In Vitro Assay:
The activity of recombinant human cathepsin C was measured by the cleavage of a fluorogenic substrate, H-Ser-Tyr-AMC. Briefly, 24 pM cathepsin C was incubated with test compound (e.g. inhibitor) in a buffer consisting of 50 mM sodium acetate, 30 mM sodium chloride, 1 mM CHAPS, 1 mM dithiothreitol, 1 mM EDTA, pH 5.5 at room temperature for one hour. After one hour of incubating test compound with cathepsin C, the activity assay was initiated by the addition of an equal volume of 0.010 mM H-Ser-Tyr-AMC in the same buffer. After one hour, the activity assay was stopped by the addition of ⅕ volume of 100 μM E-64. The reaction product was measured on a fluorescence reader set at an excitation wavelength of 360 nm and emission wavelength of 460 nm and equipped with a 400 nm dichroic mirror.

Sequence of recombinant human cathepsin C (P53634 25-463): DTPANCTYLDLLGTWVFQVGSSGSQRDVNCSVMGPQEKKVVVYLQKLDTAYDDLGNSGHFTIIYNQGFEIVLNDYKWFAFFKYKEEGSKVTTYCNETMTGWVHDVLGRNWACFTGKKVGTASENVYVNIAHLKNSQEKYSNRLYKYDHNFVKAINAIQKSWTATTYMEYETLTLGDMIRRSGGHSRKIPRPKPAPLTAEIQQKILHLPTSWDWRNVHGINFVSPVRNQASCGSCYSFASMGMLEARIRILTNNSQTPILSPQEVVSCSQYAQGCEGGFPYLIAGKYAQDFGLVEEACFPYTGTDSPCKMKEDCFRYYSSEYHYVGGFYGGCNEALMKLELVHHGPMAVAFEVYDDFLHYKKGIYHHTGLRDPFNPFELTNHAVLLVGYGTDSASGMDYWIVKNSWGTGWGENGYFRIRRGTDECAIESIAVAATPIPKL

| IC50 [µM] | Compound |
| --- | --- |
| ~0.1 | C[C@H](N)C(=O)N[C@H](/C=C/C(=O)NCc1ccccc1)CCc1ccccc1 [Example 1, (2E,4S)-4-(L-alanylamino)-6-phenyl-N-(phenylmethyl)-2-hexenamide hydrochloride] |
| ~1 | C[C@H](N)C(=O)N[C@H](/C=C/C(=O)N(C)C)CCc1ccccc1 [Example 3, (2E,4S)-4-(L-alanylamino)-N,N-dimethyl-6-phenyl-2-hexenamide hydrochloride] |

Source: patent publication US20120142668A1, “CATHEPSIN C INHIBITORS” (priority 2009, published 2012)
